20 compounds from the supplement of paper PMC11424490 can be followed below.

Test [1] deals with NCI-H2122. Put plainly: combination cScore with adagrasib (Bliss gap around IC50) (%PoC); higher = stronger additive effect. The method, then:
(§1)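 Combination screen of 179 inhibitors with the KRAS G12C inhibitor adagrasib (MRTX849) in dose matrices, CellTiter-Glo readout in NCI-H2122 (72 h), SW837 (144 h) and NCI-H358 cells. The cScore is the mean Bliss-independence gap (expected minus observed viability, in %PoC) over a 3x3 field around the IC50s of both drugs. Positive means additive, and >~10 is stated as clear additive.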

For test [2], the system named is SW837. The description is as above. How it is done: as §1

Take `Cc1ccc(Nc2nccc(N(C)c3ccc4c(C)n(C)nc4c3)n2)cc1S(N)(=O)=O` [Pazopanib] + C=C(F)C(=O)N1CCN(c2nc(OC[C@@H]3CCCN3C)nc3c2CCN(c2cccc4cccc(Cl)c24)C3)C[C@@H]1CC#N [adagrasib]: the “combination cScore with adagrasib” value in test [1] was -6.25; in test [2], -7.8.

Take `CC(=O)O[C@H]1C(=O)[C@@]2(C)[C@H]([C@H](OC(=O)c3ccccc3)[C@]3(O)C[C@H](OC(=O)[C@H](O)[C@@H](NC(=O)c4ccccc4)c4ccccc4)C(C)=C1C3(C)C)[C@]1(OC(C)=O)CO[C@@H]1C[C@@H]2O` [Paclitaxel] + C=C(F)C(=O)N1CCN(c2nc(OC[C@@H]3CCCN3C)nc3c2CCN(c2cccc4cccc(Cl)c24)C3)C[C@@H]1CC#N [adagrasib]: the “combination cScore with adagrasib” value in test [1] stood at 0.85; in test [2], 2.18.

Consider `CC(=O)O[C@@]12CO[C@@H]1C[C@H](O)[C@@]1(C)C(=O)[C@H](O)C3=C(C)[C@@H](OC(=O)[C@H](O)[C@@H](NC(=O)OC(C)(C)C)c4ccccc4)C[C@@](O)([C@@H](OC(=O)c4ccccc4)[C@H]21)C3(C)C` [Docetaxel] + C=C(F)C(=O)N1CCN(c2nc(OC[C@@H]3CCCN3C)nc3c2CCN(c2cccc4cccc(Cl)c24)C3)C[C@@H]1CC#N [adagrasib], for which the “combination cScore with adagrasib” value in test [1] was determined as 3.05; in test [2] it was 0.74.

As to `Cc1cc(Nc2nc(N[C@@H](C)c3ncc(F)cn3)ncc2Cl)[nH]n1` [AZD-1480] + C=C(F)C(=O)N1CCN(c2nc(OC[C@@H]3CCCN3C)nc3c2CCN(c2cccc4cccc(Cl)c24)C3)C[C@@H]1CC#N [adagrasib], the “combination cScore with adagrasib” value was found to be 3.87 in test [1] and 1.14 in test [2].

As to `CC(C)(C)c1cc(NC(=O)Nc2ccc(-c3cn4c(n3)sc3cc(OCCN5CCOCC5)ccc34)cc2)no1` [Quizartinib] + C=C(F)C(=O)N1CCN(c2nc(OC[C@@H]3CCCN3C)nc3c2CCN(c2cccc4cccc(Cl)c24)C3)C[C@@H]1CC#N [adagrasib], the entries for the “combination cScore with adagrasib” value in test [1] and in test [2] were -3.38 and 0.28, respectively.

With `N[C@@H](Cc1ccc(N(CCCl)CCCl)cc1)C(=O)O` [Melphalan] + C=C(F)C(=O)N1CCN(c2nc(OC[C@@H]3CCCN3C)nc3c2CCN(c2cccc4cccc(Cl)c24)C3)C[C@@H]1CC#N [adagrasib], the “combination cScore with adagrasib” value in test [1] was 3.55; in test [2], -0.68.

Consider `N#CC[C@H](C1CCCC1)n1cc(-c2ncnc3[nH]ccc23)cn1` [Ruxolitinib] + C=C(F)C(=O)N1CCN(c2nc(OC[C@@H]3CCCN3C)nc3c2CCN(c2cccc4cccc(Cl)c24)C3)C[C@@H]1CC#N [adagrasib], for which the figures for the “combination cScore with adagrasib” value in test [1] and in test [2] were -2.1 and 0.75, respectively.

For the compound `CCOC(=O)CCNc1cc(N2CCc3ccccc3CC2)nc(-c2ccccn2)n1` [GSK-J4] + C=C(F)C(=O)N1CCN(c2nc(OC[C@@H]3CCCN3C)nc3c2CCN(c2cccc4cccc(Cl)c24)C3)C[C@@H]1CC#N [adagrasib], the entries for the “combination cScore with adagrasib” value in test [1] and in test [2] were 17.9 and 0.593, respectively.

In the case of `CNC(=O)c1ccc(N2C(=S)N(c3ccc(C#N)c(C(F)(F)F)c3)C(=O)C2(C)C)cc1F` [Enzalutamide] + C=C(F)C(=O)N1CCN(c2nc(OC[C@@H]3CCCN3C)nc3c2CCN(c2cccc4cccc(Cl)c24)C3)C[C@@H]1CC#N [adagrasib], the “combination cScore with adagrasib” value in test [1] was 4.58; in test [2], 7.72.

Consider `NC(=O)c1ccc(-c2nc(-c3ccccn3)c(-c3ccc4c(c3)OCO4)[nH]2)cc1` + C=C(F)C(=O)N1CCN(c2nc(OC[C@@H]3CCCN3C)nc3c2CCN(c2cccc4cccc(Cl)c24)C3)C[C@@H]1CC#N [adagrasib], for which the “combination cScore with adagrasib” value in test [1] is 0.05; in test [2], -9.94.

As for `CCCC(CCC)C(=O)O` [Valproic acid] + C=C(F)C(=O)N1CCN(c2nc(OC[C@@H]3CCCN3C)nc3c2CCN(c2cccc4cccc(Cl)c24)C3)C[C@@H]1CC#N [adagrasib], the “combination cScore with adagrasib” value in test [1] was -2.93; in test [2] it was 2.04.

Regarding `CNC(=O)c1cc(Oc2ccc(NC(=O)Nc3ccc(Cl)c(C(F)(F)F)c3)cc2)ccn1` [Sorafenib] + C=C(F)C(=O)N1CCN(c2nc(OC[C@@H]3CCCN3C)nc3c2CCN(c2cccc4cccc(Cl)c24)C3)C[C@@H]1CC#N [adagrasib], the entries for the “combination cScore with adagrasib” value in test [1] and in test [2] were -6.98 and -4.84, respectively.

As for `CN[C@@H](C)C(=O)N[C@H](C(=O)N1CCC[C@H]1c1nc(C(=O)c2ccc(F)cc2)cs1)C1CCCCC1` [LCL161] + C=C(F)C(=O)N1CCN(c2nc(OC[C@@H]3CCCN3C)nc3c2CCN(c2cccc4cccc(Cl)c24)C3)C[C@@H]1CC#N [adagrasib], the entries for the “combination cScore with adagrasib” value in test [1] and in test [2] were -1.85 and 1.58, respectively.

Consider `CO[C@H]1C[C@@H]2CC[C@@H](C)[C@@](O)(O2)C(=O)C(=O)N2CCCC[C@H]2C(=O)O[C@H]([C@H](C)C[C@@H]2CC[C@@H](OCCO)[C@H](OC)C2)CC(=O)[C@H](C)/C=C(\C)[C@@H](O)[C@@H](OC)C(=O)[C@H](C)C[C@H](C)/C=C/C=C/C=C/1C` [Everolimus] + C=C(F)C(=O)N1CCN(c2nc(OC[C@@H]3CCCN3C)nc3c2CCN(c2cccc4cccc(Cl)c24)C3)C[C@@H]1CC#N [adagrasib], for which the “combination cScore with adagrasib” value is -6.03 in test [1] and 1.15 in test [2].

Consider `C[C@@H]1C[C@H]2[C@@H]3CCC4=CC(=O)C=C[C@]4(C)[C@@]3(F)[C@@H](O)C[C@]2(C)[C@@]1(O)C(=O)CO` [Dexamethasone] + C=C(F)C(=O)N1CCN(c2nc(OC[C@@H]3CCCN3C)nc3c2CCN(c2cccc4cccc(Cl)c24)C3)C[C@@H]1CC#N [adagrasib], for which the “combination cScore with adagrasib” value is -4.66 in test [1] and -0.93 in test [2].

With `Nc1nc(F)nc2c1ncn2[C@@H]1O[C@H](CO)[C@@H](O)[C@@H]1O` [Fludarabine] + C=C(F)C(=O)N1CCN(c2nc(OC[C@@H]3CCCN3C)nc3c2CCN(c2cccc4cccc(Cl)c24)C3)C[C@@H]1CC#N [adagrasib], the “combination cScore with adagrasib” value in test [1] was -6.95; in test [2] it was 2.57.

Consider `O=C(c1ccc(F)c(F)c1Nc1ccc(I)cc1F)N1CC(O)([C@@H]2CCCCN2)C1` [Cobimetinib] + C=C(F)C(=O)N1CCN(c2nc(OC[C@@H]3CCCN3C)nc3c2CCN(c2cccc4cccc(Cl)c24)C3)C[C@@H]1CC#N [adagrasib], for which the “combination cScore with adagrasib” value in test [1] was 2.78; in test [2] it was 13.2.

Take `CCc1cnn2c(NCc3ccc[n+]([O-])c3)cc(N3CCCC[C@H]3CCO)nc12` + C=C(F)C(=O)N1CCN(c2nc(OC[C@@H]3CCCN3C)nc3c2CCN(c2cccc4cccc(Cl)c24)C3)C[C@@H]1CC#N [adagrasib]: the entries for the “combination cScore with adagrasib” value in test [1] and in test [2] were -0.08 and 0.92, respectively.

With `CN(NC(=O)CC(=O)NN(C)C(=S)c1ccccc1)C(=S)c1ccccc1` [Elesclomol] + C=C(F)C(=O)N1CCN(c2nc(OC[C@@H]3CCCN3C)nc3c2CCN(c2cccc4cccc(Cl)c24)C3)C[C@@H]1CC#N [adagrasib], the “combination cScore with adagrasib” value in test [1] worked out at 2.19; in test [2], 6.34.

For `Nc1ccn([C@@H]2O[C@H](CO)[C@@H](O)[C@@H]2O)c(=O)n1` [Cytarabin] + C=C(F)C(=O)N1CCN(c2nc(OC[C@@H]3CCCN3C)nc3c2CCN(c2cccc4cccc(Cl)c24)C3)C[C@@H]1CC#N [adagrasib], the entries for the “combination cScore with adagrasib” value in test [1] and in test [2] were -0.23 and 6.75, respectively.
